# Results: patent publication US11484511B2, “Pharmaceutical composition comprising THA as effective ingredient for treatment of prostate cancer” (KOREA UNITED PHARM. INC., priority 2018, dated 2022)
# Entries after “also recorded” stand apart in the source; their conditions may differ.
# How the values were obtained:
# Type in all cases: cell-based
# [1] = tested on: PC3 cells; assay: Real-time cell proliferation analysis (INCUCYTE ZOOM); settings: THA 3, 10, 30 μM, BI2536 1-100 nM, PPG 3-100 μM, 68 hours
# Method: (§1) LnCaP cells, PC3 cells which are androgen receptor (AR)-negative cells, and C4-2 cells showing castration resistance were cultured using an RPMI-1640 medium (Hyclone, Logan, Utah, USA) containing 10% fetal bovine serum (FBS) (Hyclone, Logan, Utah, USA) and 1% penicillin/streptomycin.
# (§2) In order to measure cell proliferation, cells were plated onto a 96-well dish (5×10^3 cells/well). After treatment with a drug, the number of live cells was measured at 4-hour intervals using an INCUCYTE™ ZOOM Live Cell Analysis System (Essen Bioscience, Ann Arbor, Mich., USA).
# (§3) In order to comparatively observe the cell proliferation inhibitory effects after treatment of prostate cancer cells with THA, a 1 M solution was prepared by diluting 0.168 g of THA (molecular weight: 168.15) with 1 ml DMSO. After the prostate cancer cell lines (LnCaP, PC3, and C4-2) cultured by the method in Example 1-2 were treated with THA (3, 10, and 30 μM), PLK1 inhibitor BI2536 (1, 5, 10, 50, and 100 nM), and purpurogallin (PPG) (3, 10, 30, and 100 μM), the cell proliferation inhibitory effects were comparatively observed by the real-time cell proliferation analysis method for 68 hours according to Example 1-4 during.
# [2] = tested on: C4-2 cells; assay: as above; settings: THA 3, 10, 30 μM, BI2536 1-100 nM, PPG 3-100 μM, 68 hours
# Method: as §1, §2, §3
# [3] = tested on: PC3 cells; assay: Cell cycle analysis (PI / PHH3 flow cytometry); settings: 30 μM THA, 5 nM BI2536, 24 hours
# Method: In order to measure the cell cycle distribution, cells were plated onto a 100 mm dish (5×10^5 cells/well). The cells were fixed with 4° C. PBS, refrigerated in 70% EtOH at 4° C., and cultured for 24 hours. After the 70% EtOH was removed, the PHH3 antibody was treated with a lysing solution composed of 1% bovine serum albumin/0.5% Triton X-100/0.2 mg/ml EDTA to a final concentration of 1:50, and then stained at 37° C. for 15 minutes. Thereafter, the lysing solution was removed, and staining was performed again at 37° C. for 15 minutes using propidium iodide (PI)/Triton X-100/DNAse-free RNAse A. Next, 20,000 cells per experimental group were analyzed using the FACSCALIBUR™ (flow cytometer from BD Biosciences, CA, USA) machine.
# PLK1 is a representative G2/M cell cycle regulatory […], and in order to confirm the effect of blocking the cell cycle of prostate cancer cells according to the treatment with THA, the PC3 cells cultured by the method in Example 1-2 were plated onto a 6-well plate, and then 12 hours later, the cells were treated with 30 μM THA and 5 nM BI2536 for 24 hours. Thereafter, changes in the cell distribution of each of the sub-G1, S, and G2/M phases and the proportion of PH3-positive cells (M phase marker) were observed by the method in Example 1-6.
# [4] = tested on: PC3 cells; assay: Cleaved caspase-3 (CC3) expression by immunochemical analysis; settings: for induction of apoptosis: 30 μM THA or 5 nM BI2536, 48 hours
# Method: (§4) Sodium dodecyl sulfate-polyacrylamide gel electrophoresis (SDS-PAGE) was performed using a gel electrophoresis apparatus (Mighty Small SE250, Hoefer Scientific Instruments, San Francisco). After a cell lysate fraction was diluted in a sample dilution buffer solution [63 mM Tris (pH 6.8), 10% glycerol, 2% SDS, 0.0013% bromophenol blue, and 5% β-mercaptoethanol], electrophoresis was performed in an electrode buffer solution (15 g of Tris, 72 g of glycerin, and 5 g of SDS were contained in a 1 L solution) using 8 to 12% gel. Proteins were electrophoretically transferred from the gel to a nitrocellulose membrane at 190 mAmps for 70 minutes in a transfer buffer solution (25 mM Tris, 192 mM glycerin, and 20% v/v methanol (pH 8.3)) using a transfer electrophoresis apparatus. After a primary antibody was reacted with the nitrocellulose membrane, a secondary antibody was reacted with horseradish peroxidase-conjugated goat anti-rabbit IgG and horseradish peroxidase-conjugated goat anti-mouse IgG for 6 hours, and color was developed using an ECL chemiluminescence system (Amersham, Gaithersberg, Mass.).
# (§5) Further, the degree of apoptosis was observed by confirming the changes in expression of cleaved caspase-3 (CC3) which is an active-type caspase-3 during apoptosis, and first, the C4-2 and PC3 cells cultured by the method in Example 1-2 were plated onto a 6-well plate, and then cultured during 12 hr. And then the cells were treated with 30 μM THA or 5 nM BI2536 for 48 hours. Thereafter, the changes in expression of cleaved caspase-3 (CC3) were observed by the immunochemical analysis method in Example 1-3.
# [5] = tested on: C4-2 cells; assay: as above; settings: for induction of apoptosis: 30 μM THA or 5 nM BI2536, 48 hours
# Method: as §4, §5
# [6] = tested on: PC3 cells; assay: Real-time apoptosis analysis (caspase-3/7 fluorescence substrate); settings: 30 μM THA, 48 hours
# Method: (§6) In order to measure apoptosis, cells were plated onto a 96-well dish (5×10^3 cells/well). The INCUCYTE™ ZOOM 96-well Caspase-3/7 apoptosis assay reagent (Essen Bioscience, Ann Arbor, Mich., USA) was pretreated for 3 hours, a drug was treated, and then the fluorescence expression level was measured at 4-hour intervals using an INCUCYTE™ ZOOM Live Cell Analysis System (Essen Bioscience, Ann Arbor, Mich., USA).
# [7] = tested on: C4-2 cells; assay: as above; settings: 30 μM THA, 48 hours
# Method: as §6
# [8] = tested on: LnCaP cells; assay: Real-time cell proliferation analysis (INCUCYTE ZOOM); settings: PPG 3-100 μM, 68 hours
# Method: as §1, §2, §3
SMILES,cell proliferation inhibitory effect [1],cell proliferation inhibitory effect [2],PHH3-positive cells (M phase marker) compared to the control [3],cell cycle progression [3],induction of apoptosis [4],"expression level of cleaved caspase-3 ([4]; 30 μM THA, 48 hours)",induction of apoptosis [5],"expression level of cleaved caspase-3 ([5]; 30 μM THA, 48 hours)",apoptotic index (caspase-3/7 activity) [6],apoptotic index (caspase-3/7 activity) [7],cell proliferation inhibitory activity [8]
"CC(=O)c1c(O)cc(O)cc1O [THA, 2,4,6-trihydroxyacetophenone]",the same cell proliferation inhibitory effects as BI2536; also recorded: selectively inhibits cell proliferation,the same cell proliferation inhibitory effects as BI2536; also recorded: selectively inhibits cell proliferation,a significant increase,selectively blocked cell cycle progression at the G2/M phase,apoptosis is effectively induced,increased,apoptosis is effectively induced,increased,significantly increased the apoptotic index,significantly increased the apoptotic index,–
"CC[C@@H]1C(=O)N(C)c2cnc(Nc3ccc(C(=O)NC4CCN(C)CC4)cc3OC)nc2N1C1CCCC1 [BI2536, reference compound]",selectively inhibits cell proliferation,selectively inhibits cell proliferation,a significant increase,inhibition of G2/M phase progression is induced,apoptosis is effectively induced,–,apoptosis is effectively induced,–,–,–,–
"O=c1c(O)cccc2cc(O)c(O)c(O)c12 [Purpurogallin, purpurogallin, reference compound]",limited cell proliferation inhibitory activity,a cell growth inhibitory effect that appeared to be non-selective only at a concentration of 100 uM,–,–,–,–,–,–,–,–,limited cell proliferation inhibitory activity
